Data set [1] can be described thus: Cytotoxicity against HLF cells assessed as reduction in cell viability. It counts as toxicity, cell-based. To be noted: human.
Data set [2] is described as follows: Toxicity in athymic nude BALB/c mouse assessed as change in body weight at 10 mg/kg, ip measured for 30 days. It counts as organism-based. The following applies: in vivo, 720 h, time 30 day.
Data set [3] is described as follows: AUC (0 to infinity) in ICR mouse at 1 mg/kg, iv single administration measured for 24 hrs post treatment by LC-MS/MS analysis. It counts as ADME, organism-based. Set-up: time 24 hrs, dose 1 mg/kg, route iv. The following applies: in vivo.
Data set [4] can be described thus: Selectivity ratio of IC50 for cytotoxicity against HLF cells assessed as reduction in cell viability to IC50 for cytotoxicity against human A549 cells assessed as reduction in cell viability. It counts as toxicity, cell-based. To be noted: HLF cells versus A549 cells.
In another data set the test system is HCT-8. Description: Antiproliferative activity against human vincristine-resistant HCT-8/VCR cells assessed as cell viability incubated for 48 hrs by MTT assay. It counts as functional, cell-based. The following applies: HCT-8, 48 h. (Formazan colour is commonly taken as a measure of viable cells.)
Data set [5] in a line: Selectivity ratio of IC50 for cytotoxicity against HUVEC cells assessed as reduction in cell viability to IC50 for cytotoxicity against human A549 cells assessed as reduction in cell viability. It counts as toxicity, cell-based. The following applies: HUVEC cells versus A549 cells.
Data set [6] can be described thus: AUC (0 to infinity) in ICR mouse at 10 mg/kg, po single administration measured for 24 hrs post treatment by LC-MS/MS analysis. It counts as ADME, organism-based. Also noted: time 24 hrs, dose 10 mg/kg, route po. To be noted: in vivo.
The nature of data set [7]: Half life in ICR mouse at 10 mg/kg, po single administration measured for 24 hrs post treatment by LC-MS/MS analysis. It counts as ADME, organism-based. The following applies: in vivo.
Data set [8] can be described thus: Cmax in ICR mouse at 10 mg/kg, po single administration measured for 24 hrs post treatment by LC-MS/MS analysis. It counts as ADME, organism-based. Also noted: time 24 hrs, dose 10 mg/kg, route po. To be noted: in vivo.
A further data set relates to MCF7. Description: Antiproliferative activity against human MCF7 cells assessed as cell viability incubated for 48 hrs by MTT assay. The following applies: MCF7, 48 h. It counts as functional, cell-based.

Structures are written as SMILES.

Broadly, the IC50 is the midpoint of a concentration-inhibition curve. As usually defined, the half-life is how long it takes for the measured level to halve. For orientation: Cmax means the maximum level reached in the sampled fluid or tissue. As to `C=C(c1cc(OC)c(OC)c(OC)c1)c1ccc(OC)c(O)c1NC(=O)CO`, the IC50 in data set [1] was 1320 nM; with HCT-8, 70 nM; with MCF7 it was 50 nM. The Activity entry in [2] is recorded as “Non-Toxic”. For the same compound, the AUC in data set [3] amounted to 353.02 h/ng/mL; in data set [6], 2463.76 h/ng/mL. Moreover, the results for the selectivity ratio in [4] and in [5] were 135 and 4, respectively. The compound also showed a half-life in data set [7] of 2.12 h. Moreover, the Cmax in data set [8] was determined as 776 ng/mL.

The record behind these values is ChEMBL document CHEMBL5154799, “Discovery of a Novel Stilbene Derivative as a Microtubule Targeting Agent Capable of Inducing Cell Ferroptosis” (J Med Chem, 2022).
